We go through eight molecules from EP4223882A1, “PROCESS FOR PRODUCING ALDONIC ACIDS” (Vilnius University, priority 2022, dated 2023).

Read-outs that look alike come from different tables or passages of the source.

In data set [1] the target is T1, PQQGDH (Acinetobacter calcoaceticus, UniProt P13650).
T1 sequence (P13650 25-478): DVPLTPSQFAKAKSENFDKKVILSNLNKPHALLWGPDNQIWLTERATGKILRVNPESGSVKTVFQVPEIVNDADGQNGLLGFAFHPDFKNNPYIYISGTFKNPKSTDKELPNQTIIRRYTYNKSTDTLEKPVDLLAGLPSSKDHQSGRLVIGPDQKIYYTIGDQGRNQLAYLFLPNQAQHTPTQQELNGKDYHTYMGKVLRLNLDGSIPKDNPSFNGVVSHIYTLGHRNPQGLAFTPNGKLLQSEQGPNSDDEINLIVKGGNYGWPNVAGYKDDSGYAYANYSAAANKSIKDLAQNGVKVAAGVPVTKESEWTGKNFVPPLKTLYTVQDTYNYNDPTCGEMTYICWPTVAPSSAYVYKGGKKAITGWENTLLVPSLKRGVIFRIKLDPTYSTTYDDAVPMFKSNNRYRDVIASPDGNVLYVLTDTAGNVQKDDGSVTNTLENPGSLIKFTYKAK
The settings on record: for cmax: sqrt(KM·Ki).

The target of data set [2] is T1, PQQGDH. Briefly: biochemical.
The next data set deals with T2, horseradish peroxidase (Armoracia rusticana, UniProt P00433).
T2 sequence (P00433 31-338 limits assumed): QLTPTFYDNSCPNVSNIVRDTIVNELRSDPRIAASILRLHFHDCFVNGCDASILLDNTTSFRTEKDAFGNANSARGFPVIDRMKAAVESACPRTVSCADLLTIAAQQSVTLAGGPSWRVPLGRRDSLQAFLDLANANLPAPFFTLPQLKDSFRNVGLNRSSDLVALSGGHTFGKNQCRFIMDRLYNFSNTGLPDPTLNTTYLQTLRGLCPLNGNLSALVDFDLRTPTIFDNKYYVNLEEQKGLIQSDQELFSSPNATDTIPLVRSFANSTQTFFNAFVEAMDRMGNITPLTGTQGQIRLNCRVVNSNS
The settings on record: cited from earlier work.

Substrate in data set [3]: OC[C@H]1O[C@@H](O[C@H]2[C@H](O)[C@@H](O)C(O)O[C@@H]2CO)[C@H](O)[C@@H](O)[C@H]1O
Briefly: purified protein, by the assay type. The settings on record: apparent parameter.

Substrate in data set [4]: O=C[C@H](O)[C@@H](O)[C@H](O)CO
Nature of the data set: purified protein, by the assay type. The note with it: other: pH 7.0, thionine 220 µM, apparent parameter.

Substrate in data set [5]: O=C[C@H](O)[C@@H](O)[C@@H](O)[C@H](O)CO
Nature of the data set: purified protein, by the assay type. The settings on record: apparent parameter.

Substrate in data set [6]: O=C[C@H](O)[C@H](O)[C@H](O)CO
Briefly: purified protein, by the assay type. The note with it: other: pH 7.0, thionine 220 µM, apparent parameter.

[7] abbreviates: pH 7.0, thionine 220 µM, substrate concentration at maximal rate.
The mark [8] stands for this setting: pH 7.0, thionine 410 µM (asterisk).
Setting [9] is: Ki, pH 7.0, thionine 410 µM (asterisk), enzyme inhibition by the substrate constant.
[10] abbreviates: other: pH 7.0, thionine 410 µM (asterisk).

`O=C[C@H](O)[C@H](O)[C@H](O)CO` [Ribose]: on PQQGDH [1] (grouping of substrates), the “substrate concentration at which the maximal reaction rate was observed (cmax)” value (“substrate concentration” for short) was over 20 mM. For the same molecule, the cmax at PQQGDH [1] (setting [7]) was 84 ± 39 mM.

With `O=C[C@@H](O)[C@@H](O)[C@H](O)CO` [Lyxose], the “substrate concentration” value on PQQGDH [1] (grouping of substrates) is on record as over 20 mM. Moreover, on PQQGDH [1] (pH 7.0, thionine 220 µM, apparent parameter), the Vmax is 190 ± 40 s⁻¹. At PQQGDH [1] (setting [7]), the cmax was >10^4 mM.

A word on the Ki: it is the equilibrium dissociation constant of an inhibitor or competing ligand from its target. Turning to `O=C[C@H](O)[C@@H](O)[C@H](O[C@@H]1O[C@H](CO)[C@@H](O)[C@H](O)[C@H]1O)[C@H](O)CO` [Cellobiose], the “substrate concentration” value on PQQGDH [1] (grouping of substrates) is given as under 20 mM. For the same molecule, the results for the cmax at PQQGDH [1] (setting [7]) and on PQQGDH [1] (setting [8]) were 2.4 ± 0.2 mM and 3.3 ± 0.2 mM, respectively. The Ki was 11 ± 1 mM on PQQGDH [2] and 21 ± 1 mM at PQQGDH [2] (setting [9]).

For the molecule `OC[C@H]1O[C@@H](O[C@H]2[C@H](O)[C@@H](O)C(O)O[C@@H]2CO)[C@H](O)[C@@H](O)[C@H]1O` (stereo partly shown) [Lactose], at PQQGDH [1] (grouping of substrates), the “substrate concentration” value is given as under 20 mM. Further, the results for the cmax on PQQGDH [1] (setting [7]) and at PQQGDH [1] (setting [8]) were 5.2 ± 0.9 mM and 6.4 ± 0.4 mM, respectively. For the same molecule, the figures for the Ki on PQQGDH [2] and on PQQGDH [2] (setting [9]) were 25 ± 2 mM and 51 ± 2 mM, respectively.

On to `Nc1ccc2c(c1)Sc1cc(N)ccc1N2` [leuco thionine], for which the “bimolecular horseradish peroxidase and leuco thionine reactivity constant” value at horseradish peroxidase was 4.8e+08 M⁻¹ s⁻¹.

For `O=C[C@H](O)[C@@H](O)[C@H](O)CO` [Xylose], the “substrate concentration” value at PQQGDH [1] (grouping of substrates) was over 20 mM. Besides, the cmax on PQQGDH [1] (setting [7]) was 88 ± 8 mM.

For `O=C[C@H](O)[C@@H](O)[C@@H](O)[C@H](O)CO` [Galactose], the “substrate concentration” value at PQQGDH [1] is given as under 20 mM.

B1: PQQGDH (Acinetobacter calcoaceticus) (protein)
chain: DVPLTPSQFAKAKSENFDKKVILSNLNKPHALLWGPDNQIWLTERATGKILRVNPESGSVKTVFQVPEIVNDADGQNGLLGFAFHPDFKNNPYIYISGTFKNPKSTDKELPNQTIIRRYTYNKSTDTLEKPVDLLAGLPSSKDHQSGRLVIGPDQKIYYTIGDQGRNQLAYLFLPNQAQHTPTQQELNGKDYHTYMGKVLRLNLDGSIPKDNPSFNGVVSHIYTLGHRNPQGLAFTPNGKLLQSEQGPNSDDEINLIVKGGNYGWPNVAGYKDDSGYAYANYSAAANKSIKDLAQNGVKVAAGVPVTKESEWTGKNFVPPLKTLYTVQDTYNYNDPTCGEMTYICWPTVAPSSAYVYKGGKKAITGWENTLLVPSLKRGVIFRIKLDPTYSTTYDDAVPMFKSNNRYRDVIASPDGNVLYVLTDTAGNVQKDDGSVTNTLENPGSLIKFTYKAK
Broadly, the Km is the concentration of substrate that gives half-maximal velocity. The term kcat denotes the maximal rate divided by the concentration of active sites. As to B1, the Km in data set [3] (other: pH 7.0, thionine 220 µM) was 1500 ± 100 µM; in data set [3] (setting [10]), 610 ± 20 µM; in data set [4], 7100 ± 300 µM; in data set [5] (other: pH 7.0, thionine 220 µM), 2400 ± 200 µM; in data set [5] (setting [10]), 1800 ± 100 µM; in data set [6] it was 21000 ± 5000 µM. Moreover, the catalytic constant (kcat) in data set [3] (other: pH 7.0, thionine 220 µM) was determined as 380 ± 50 s⁻¹; in data set [3] (setting [10]), 430 ± 10 s⁻¹; in data set [4], 460 ± 20 s⁻¹; in data set [5] (other: pH 7.0, thionine 220 µM), 350 ± 30 s⁻¹; in data set [5] (setting [10]) it was 349 ± 2 s⁻¹; in data set [6] it was 250 ± 60 s⁻¹.
